These are literature values, as cited in US20200289459A1, “LIQUID DOSAGE FORMS, METHODS OF MAKING AND USE” (CANOPY GROWTH CORPORATION, priority 2017, published 2020).

Each structure is given as a SMILES string.

One data set concerns the target CB2 receptor (Homo sapiens, UniProt P34972).
The next data set addresses CB1 receptor (Homo sapiens, UniProt P21554).
Another data set deals with T1, 5-HT1A receptor (Homo sapiens, UniProt P08908).
T1 sequence (P08908 1-422): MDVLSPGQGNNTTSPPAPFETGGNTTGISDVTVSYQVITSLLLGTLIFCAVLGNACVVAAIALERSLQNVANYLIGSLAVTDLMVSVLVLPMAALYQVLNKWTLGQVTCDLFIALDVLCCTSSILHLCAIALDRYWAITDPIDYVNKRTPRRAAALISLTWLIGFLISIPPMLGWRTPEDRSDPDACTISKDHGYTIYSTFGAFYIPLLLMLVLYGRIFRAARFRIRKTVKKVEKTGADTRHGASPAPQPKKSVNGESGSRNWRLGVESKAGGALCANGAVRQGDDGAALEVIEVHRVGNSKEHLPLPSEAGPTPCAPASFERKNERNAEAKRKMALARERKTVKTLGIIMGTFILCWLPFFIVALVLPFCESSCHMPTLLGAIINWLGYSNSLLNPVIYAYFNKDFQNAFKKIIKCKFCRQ

Data set [1] concerns locomotor suppression, catalepsy, hypothermia and analgesia. The settings on record: up to 80 mg/kg.

Chain of CB1 receptor (P21554 whole entry): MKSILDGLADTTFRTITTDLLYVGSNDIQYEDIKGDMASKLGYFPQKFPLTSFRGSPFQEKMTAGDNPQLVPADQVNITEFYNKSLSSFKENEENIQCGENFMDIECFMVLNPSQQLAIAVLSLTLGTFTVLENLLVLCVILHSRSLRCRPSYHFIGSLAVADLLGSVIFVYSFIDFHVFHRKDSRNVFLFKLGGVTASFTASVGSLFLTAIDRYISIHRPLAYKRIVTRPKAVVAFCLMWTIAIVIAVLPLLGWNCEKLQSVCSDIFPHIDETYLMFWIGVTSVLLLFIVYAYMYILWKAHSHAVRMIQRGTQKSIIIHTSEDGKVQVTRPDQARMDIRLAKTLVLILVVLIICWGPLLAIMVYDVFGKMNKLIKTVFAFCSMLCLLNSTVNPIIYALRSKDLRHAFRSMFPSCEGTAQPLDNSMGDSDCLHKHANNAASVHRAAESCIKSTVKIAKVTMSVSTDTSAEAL
Chain of CB2 receptor (P34972 whole entry): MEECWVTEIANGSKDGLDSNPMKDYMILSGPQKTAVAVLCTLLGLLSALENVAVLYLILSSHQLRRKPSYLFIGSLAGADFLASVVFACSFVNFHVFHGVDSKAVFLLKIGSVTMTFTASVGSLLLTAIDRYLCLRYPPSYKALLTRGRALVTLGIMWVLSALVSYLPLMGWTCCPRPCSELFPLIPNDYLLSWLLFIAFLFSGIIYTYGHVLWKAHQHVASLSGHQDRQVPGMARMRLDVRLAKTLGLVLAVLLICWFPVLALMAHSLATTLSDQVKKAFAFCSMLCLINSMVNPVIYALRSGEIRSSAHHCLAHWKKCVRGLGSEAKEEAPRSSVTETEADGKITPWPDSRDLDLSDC

On to `CCCCCc1cc(O)c(C/C=C(\C)CCC=C(C)C)c(O)c1` [CBG, Cannabigerol], for which the “binding to the CB2 receptor” value at CB2 receptor was “antagonist”. Moreover, the “affinity as α2-adrenergic receptor agonist” value in the data set on α2-adrenergic receptor is given as “high affinity”. Further, the “affinity as CB1 receptor antagonist” value at CB1 receptor is reported as “low affinity”. In addition, at 5-HT1A receptor, the “affinity as 5-HT1A receptor antagonist” value is “moderate affinity”. The “effect in the mouse tetrad test of cannabimimetic activity” value in data set [1] is on record as “without effect”.
